From US12421317B2, “Polynucleotides encoding anti-glucagon-like peptide 1 receptor (GLP1R) antagonist antibodies” (Regeneron Pharmaceuticals, Inc., priority 2020, dated 2025)
Marks after values point to notes of the source that are not given here.

Test system: GLP1R humanized mice
Assay: GLP1-induced hypoglycemia (Exendin-4 challenge) in GLP1R humanized mice, glucose AUC (Example 6)
Assay type: in vivo
Conditions: for Normalized glucose AUC during Exendin-4 challenge: Exendin-4 at 0-min, test article 10 mg/kg s.c., mean
Procedure: Thirty-nine, 2.5-month-old male GLP1R humanized mice were randomly divided into one group of sixteen mice, two groups of eight mice, and one group of seven mice. On Day 0, the group of sixteen animals (Groups 1 and 2) were administered subcutaneously (s.c.) with a hIgG4 isotype control antibody (referred to as isotype control, dose of 10 mg/kg). […] The group of seven animals (Group 5) was administered s.c. (dose of 10 mg/kg) with mAb36986. […] […] At the same time point, animals in Groups 3, 4, and 5 were administered i.p. with Exendin-4 (dose of 0.01 mg/kg). For all animals, blood glucose levels were measured with a handheld glucometer immediately before and 15, 30, 60, and 120 minutes after saline or Exendin-4 administration. All animals remained in their assigned groups until the study completion on Day 80. With animals in Groups 1, 2, 4, and 5, the Exendin-4 challenge was repeated on Days 3, 7, 15, 21, 29, 65, and 80.
The AUC value of each animal at each challenge was normalized to the mean AUC value of Group 1. Statistical analyses were performed by one-way ANOVA followed by Bonferroni post-hoc tests, comparing Groups 1, 3, 4, or 5 to Group 2, for each challenge.

Exendin-3 (9-39) amide [Exendin-9, reference compound]
correction of Exendin-4 induced hypoglycemia (10 mg/kg s.c.): correction of Exendin-4 induced hypoglycemia when Exendin-4 challenge was performed 30 minutes post Exendin-9 administration, but not when the challenge was performed 4.5 or 24 hours post Exendin-9 administration | Normalized glucose AUC during Exendin-4 challenge (0.5 h post test article): 101.3**** % of Group 1 | Normalized glucose AUC during Exendin-4 challenge (4.5 h post test article): 70.1 % of Group 1 | Normalized glucose AUC during Exendin-4 challenge (24 h post test article): 74.1 % of Group 1
